ChEMBL document CHEMBL4303082, “A Large-scale Drug Repositioning Survey for SARS-CoV-2 Antivirals” (2020)
Square brackets hold non-standard residues; d marks the D form. Peptide text beside a SMILES is read from it. * marks the point of attachment. ξ: configuration not given here. ξF = NC(Cc1ccccc1)C(=O)O; Cbz = O=C(OCc1ccccc1)*; CHN2 = [N-]=[N+]=C*

Tested on: SARS-CoV-2
Experiment: Determination of antiviral efficacy in high-content imaging assay in Vero E6 cells infected with SARS-CoV-2 (USA-WA1/2020 isolate) at MOI 0.75 after 24 hrs
Type: functional, organism-based, Chlorocebus sabaeus
Conditions: Severe acute respiratory syndrome coronavirus 2, Vero C1008, 24 h

**Q.** `CCC(CC)COC(=O)[C@H](C)N[P@](=O)(OC[C@H]1O[C@@](C#N)(c2ccc3c(N)ncnn23)[C@H](O)[C@@H]1O)Oc1ccccc1` was tested. Which EC50 did it give?
**A.** Its EC50 is 620 nM.

**Q.** With `C1=C(c2ccc(CN3CCCCC3)cc2)N2CCN=C2c2ccccc21` as the compound, how does the EC50 read?
**A.** The EC50 was 750 nM.

**Q.** `C[C@@H]1CS/C(=N\NC(=O)C(=O)[C@@H](NC(=O)C2CCCCCC2)C2CCOCC2)N1C` was tested. Which EC50 did it give?
**A.** Its EC50 is 500 nM.

**Q.** For `COc1cccc2c(N3CCc4ccccc4C3C)nc(Nc3ccc(F)cc3C)nc12` (stereo unspecified), which EC50 is on record?
**A.** Its EC50 is 950 nM.

**Q.** With `CC(C)(C)NCc1ccc(Nc2ccnc3cc(Cl)ccc23)cc1O` [GSK-369796] as the compound, how does the EC50 read?
**A.** The EC50 was 1200 nM.

**Q.** With `CC[C@H](NC(=O)[C@H](CS(=O)(=O)CC1CC1)N[C@@H](c1ccc(F)cc1)C(F)(F)F)C(=O)C(=O)NC1CC1` as the compound, how does the EC50 read?
**A.** Its EC50 is 300 nM.

**Q.** Which EC50 does the source give for `CC(C)CC(NC(=O)OCc1ccccc1)C(=O)NC(C(=O)NCC(=O)C=[N+]=[N-])C(C)C` (stereo not drawn) (Cbz-Leu-Val-Gly-CHN2; configuration not given here) here?
**A.** Its EC50 is 190 nM.

**Q.** Which EC50 does the source give for `Cc1cccc(/C=N/Nc2cc(N3CCOCC3)nc(OCCc3ccccn3)n2)c1` [APILIMOD] here?
**A.** The EC50 was 23 nM.

**Q.** For `CC(C)(O)c1ccc2c(c1)/C(=C/CCN1CC[C@](O)(c3ccc(Cl)cc3)C(C)(C)C1)c1cccnc1CO2`, which EC50 is on record?
**A.** The EC50 was 140 nM.

**Q.** With `CC(C)[C@H](NC(=O)OCc1ccccc1)C(=O)NC(C=O)Cc1ccccc1` (stereo partly drawn) (Cbz-Val-[ξF]-aldehyde) as the compound, how does the EC50 read?
**A.** Its EC50 is 220 nM.

**Q.** How did the EC50 turn out when `COc1ccc2cc1Oc1ccc(cc1)C[C@H]1c3cc(c(OC)cc3CCN1C)Oc1c(OC)c(OC)cc3c1[C@H](C2)N(C)CC3` [FANCHININ] was run?
**A.** The EC50 was 1100 nM.

**Q.** Which EC50 does the source give for `Fc1ccc(-c2ccc(CN3CCN(c4cccc5ccoc45)CC3)[nH]2)cc1` [ELOPIPRAZOLE] here?
**A.** Its EC50 is 1100 nM.

**Q.** How did the EC50 turn out when `COc1cc2c(cc1N1C[C@@H](C)N[C@@H](C)C1)N(C(=O)c1ccc(-c3ccc(-c4noc(C)n4)cc3C)cc1)CC2` was run?
**A.** The EC50 was 1200 nM.

**Q.** For `CN(C)CCn1c(C(=O)N2CCN(c3ccccc3Cl)CC2)c(C(c2ccc(O)cc2)c2ccc(O)cc2)c2ccccc21`, which EC50 is on record?
**A.** The EC50 was 1200 nM.

**Q.** How did the EC50 turn out when `CCNC/C=C\CNCCCCNCCCCNC/C=C\CNCC` was run?
**A.** Its EC50 is 250 nM.

**Q.** Which EC50 does the source give for `C[C@@H]1CN(c2ncc(C(O)CO)cc2Cl)CCN1c1nc2c(-c3cc(F)c(F)c(F)c3)cc(C(F)(F)F)cc2[nH]1` (stereo partly specified) here?
**A.** The EC50 was 950 nM.
